Data as given in patent publication US20260138976A1 (Hoffmann-La Roche Inc., priority 2022, published 2026).

System: primary human T-cells
Assay: Proliferation assay (5 days, CellTiter-Glo, CD3-stimulated T-cells)
Assay type: cell-based
Conditions: for Emax proliferation (% activation): CD3 condition, normalised to DMSO (neutral) and 20 μM reference compound A1 = 100%; for EC50: Homo sapiens, T-cell, 120 h, CD3-stimulated primary human T-cells, 5 days, CellTiter-Glo, fitted sigmoidal curve, read-out: Tcell Proliferation CD3 EC50
In short: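 Proliferation read-out: ATP luminescence (CellTiter-Glo 2.0) at day 5 in expanded primary human T-cells on CD3 antibody-coated plates, with PBS-only plates as a counter screen. Compounds in 5–6 pt series (factor 3.333, top 20 or 10 μM final). Values are normalized to DMSO (neutral) and 20 μM reference A1 (100%), from sigmoidal fits.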

SMILES: Cn1ccc(-c2ccc(CN3C(=O)[C@@H](N)CS(=O)(=O)c4cc(F)c(-c5nnc(C(C)(C)C)o5)cc43)cc2)n1 [Example 1, (3R)-3-amino-7-(5-tert-butyl-1,3,4-oxadiazol-2-yl)-8-fluoro-5-[[4-(1-methylpyrazol-3-yl)phenyl]methyl]-1,1-dioxo-2,3-dihydro-1λ^6,5-benzothiazepin-4-one]
- Emax proliferation (% activation): 73 % activation
- EC50: 843 nM

SMILES: Cc1noc(-c2ccc(CN3C(=O)[C@@H](N)CS(=O)(=O)c4cc(F)c(-c5nnc(C(C)(C)C)o5)cc43)cc2)n1 [Example 2]
- Emax proliferation (% activation): 143 % activation
- EC50: 296 nM

SMILES: CC(C)Nc1nnc(-c2cc3c(cc2F)S(=O)(=O)C[C@H](N)C(=O)N3Cc2ccc(-c3noc(C(F)(F)F)n3)cc2)o1 [Example 6, (3R)-3-amino-8-fluoro-7-[5-(isopropylamino)-1,3,4-oxadiazol-2-yl]-1,1-dioxo-5-[[4-[5-(trifluoromethyl)-1,2,4-oxadiazol-3-yl]phenyl]methyl]-2,3-dihydro-1λ^6,5-benzothiazepin-4-one]
- Emax proliferation (% activation): 109 % activation
- EC50: 765 nM

SMILES: CC(C)(C)c1nc(-c2cc3c(cc2F)S(=O)(=O)C[C@H](N)C(=O)N3Cc2ccc(-c3ccc(CO)cc3)nc2)no1 [Example 7, (3R)-3-amino-7-(5-tert-butyl-1,2,4-oxadiazol-3-yl)-8-fluoro-5-[[6-[4-(hydroxymethyl)phenyl]-3-pyridyl]methyl]-1,1-dioxo-2,3-dihydro-1λ^6,5-benzothiazepin-4-one]
- Emax proliferation (% activation): 97 % activation
- EC50: 3520 nM

SMILES: N[C@H]1CS(=O)(=O)c2cc(F)c(-c3noc(N4CCCC4)n3)cc2N(Cc2ccc(-c3noc(C(F)(F)F)n3)nc2)C1=O [Example 15, (3R)-3-amino-8-fluoro-1,1-dioxo-7-(5-pyrrolidin-1-yl-1,2,4-oxadiazol-3-yl)-5-[[6-[5-(trifluoromethyl)-1,2,4-oxadiazol-3-yl]-3-pyridyl]methyl]-2,3-dihydro-1λ^6,5-benzothiazepin-4-one]
- Emax proliferation (% activation): 64 % activation
- EC50: 3200 nM

SMILES: Cn1ccc(-c2ccc(CN3C(=O)[C@@H](N)CS(=O)(=O)c4ccc(-c5nnc(C(C)(C)C)o5)cc43)cc2)n1 [Example 21]
- Emax proliferation (% activation): 63 % activation
- EC50: 7060 nM

SMILES: CC(C)(C)c1nnc(-c2ccc3c(c2)N(Cc2ccc(-c4noc(C(F)(F)F)n4)cc2)C(=O)[C@@H](N)CS3(=O)=O)o1 [Example 23, (3R)-3-amino-7-(5-tert-butyl-1,3,4-oxadiazol-2-yl)-1,1-dioxo-5-[[4-[5-(trifluoromethyl)-1,2,4-oxadiazol-3-yl]phenyl]methyl]-2,3-dihydro-1λ^6,5-benzothiazepin-4-one]
- Emax proliferation (% activation): 136 % activation
- EC50: 316 nM

SMILES: CC(C)(C)c1nnc(-c2ccc3c(c2)N(Cc2ccc(-n4cc(C(F)(F)F)cn4)cc2)C(=O)[C@@H](N)CS3(=O)=O)o1 [Example 25, (3R)-3-amino-7-(5-tert-butyl-1,3,4-oxadiazol-2-yl)-1,1-dioxo-5-[[4-[4-(trifluoromethyl)pyrazol-1-yl]phenyl]methyl]-2,3-dihydro-1λ^6,5-benzothiazepin-4-one]
- Emax proliferation (% activation): 131 % activation
- EC50: 2930 nM

SMILES: CC(C)(C)c1nnc(-c2ccc3c(c2)N(Cc2ccc(-n4ccc(C(F)(F)F)n4)cc2)C(=O)[C@@H](N)CS3(=O)=O)o1 [Example 27]
- Emax proliferation (% activation): 212 % activation
- EC50: 252 nM

SMILES: CC(C)(C)c1nnc(-c2ccc3c(c2)N(Cc2ccc(-n4cnc(C(F)(F)F)c4)cc2)C(=O)[C@@H](N)CS3(=O)=O)o1 [Example 28, (3R)-3-amino-7-(5-tert-butyl-1,3,4-oxadiazol-2-yl)-1,1-dioxo-5-[[4-[4-(trifluoromethyl)imidazol-1-yl]phenyl]methyl]-2,3-dihydro-1λ^6,5-benzothiazepin-4-one]
- Emax proliferation (% activation): 108 % activation
- EC50: 3510 nM

SMILES: CC(N)(c1nnc(-c2ccc3c(c2)N(Cc2ccc(-c4noc(CC(F)(F)F)n4)cc2)C(=O)[C@@H](N)CS3(=O)=O)o1)C(F)(F)F (stereo partly drawn) [Example 33, (3R)-3-amino-7-[5-(1-amino-2,2,2-trifluoro-1-methyl-ethyl)-1,3,4-oxadiazol-2-yl]-1,1-dioxo-5-[[4-[5-(2,2,2-trifluoroethyl)-1,2,4-oxadiazol-3-yl]phenyl]methyl]-2,3-dihydro-1λ^6,5-benzothiazepin-4-one]
- Emax proliferation (% activation): 105 % activation
- EC50: 3190 nM

SMILES: CC(C)(C#N)c1nnc(-c2ccc3c(c2)N(Cc2ccc(-c4ccc(C(F)(F)F)cc4)cc2)C(=O)[C@@H](N)CS3(=O)=O)o1 [Example 46]
- Emax proliferation (% activation): 94 % activation
- EC50: 116 nM

SMILES: CC1(c2nnc(-c3ccc4c(c3)N(Cc3ccc(-c5ccc(C(F)(F)F)cc5)cc3)C(=O)[C@@H](N)CS4(=O)=O)o2)CCO1 (stereo partly drawn) [Example 48, (3R)-3-amino-7-[5-(2-methyloxetan-2-yl)-1,3,4-oxadiazol-2-yl]-1,1-dioxo-5-[[4-[4-(trifluoromethyl)phenyl]phenyl]methyl]-2,3-dihydro-1lambda6,5-benzothiazepin-4-one]
- Emax proliferation (% activation): 139 % activation
- EC50: 321 nM

SMILES: N[C@H]1CS(=O)(=O)c2ccc(-c3nnc(C4(CO)CCCO4)o3)cc2N(Cc2ccc(-c3ccc(C(F)(F)F)cc3)cc2)C1=O (stereo partly drawn) [Example 55]
- Emax proliferation (% activation): 59 % activation
- EC50: 1090 nM

SMILES: COC(=O)N1CC2CC(c3nnc(-c4ccc5c(c4)N(Cc4ccc(-c6ccc(OC)cc6)cc4)C(=O)[C@@H](N)CS5(=O)=O)o3)(C2)C1 [Example 59, methyl 1-[5-[(3R)-3-amino-5-[[4-(4-methoxyphenyl)phenyl]methyl]-1,1,4-trioxo-2,3-dihydro-1λ^6,5-benzothiazepin-7-yl]-1,3,4-oxadiazol-2-yl]-3-azabicyclo[3.1.1]heptane-3-carboxylate]
- Emax proliferation (% activation): 103 % activation
- EC50: 29 nM

SMILES: COC(=O)N1CC2CC(c3nnc(-c4ccc5c(c4)N(Cc4ccc(-c6ccc(C(F)(F)F)cc6)cc4)C(=O)[C@@H](N)CS5(=O)=O)o3)(C2)C1 [Example 60, methyl 1-[5-[(3R)-3-amino-1,1,4-trioxo-5-[[4-[4-(trifluoromethyl)phenyl]phenyl]methyl]-2,3-dihydro-1λ^6,5-benzothiazepin-7-yl]-1,3,4-oxadiazol-2-yl]-3-azabicyclo[3.1.1]heptane-3-carboxylate]
- Emax proliferation (% activation): 110 % activation
- EC50: 41.7 nM

SMILES: COc1ccc(-c2ccc(CN3C(=O)[C@@H](N)CS(=O)(=O)c4ccc(-c5nnc(C6(CO)CCCO6)o5)cc43)cc2)cc1 (stereo partly drawn) [Example 63, (3R)-3-amino-7-[5-[2-(hydroxymethyl)tetrahydrofuran-2-yl]-1,3,4-oxadiazol-2-yl]-5-[[4-(4-methoxyphenyl)phenyl]methyl]-1,1-dioxo-2,3-dihydro-1λ^6,5-benzothiazepin-4-one]
- Emax proliferation (% activation): 103 % activation
- EC50: 1060 nM

SMILES: COC(F)(c1nnc(-c2ccc3c(c2)N(Cc2ccc(-c4nnc(C5CC5)o4)cc2)C(=O)[C@@H](N)CS3(=O)=O)o1)C(F)(F)F (stereo partly drawn) [Example 65]
- Emax proliferation (% activation): 102 % activation
- EC50: 681 nM
